Measurements reported in ChEMBL document CHEMBL2074436, “Hepatobiliary elimination of the peroxisome proliferator nafenopin by conjugation and subsequent ATP-dependent transport across the canalicular membrane” (Biochem Pharmacol, 1994).

Columns and labels:
[1] = target: T1, ATP-binding cassette sub-family C member 2 (Rattus norvegicus, UniProt Q63120); experiment: TP_TRANSPORTER: inhibition of Naf-GlcA uptake (Naf-GlcA: 0.1 uM) in bile canalicular membrane vesicles of Wistar rat; format: functional, cell membranes, Bile canalicular membrane vesicle
[2] = target: T1, ATP-binding cassette sub-family C member 2; experiment: TP_TRANSPORTER: uptake in bile canalicular membrane vesicles from Wistar/TR- rat; format: functional, cell membranes, Bile canalicular membrane vesicle

T1 sequence (Q63120 whole entry): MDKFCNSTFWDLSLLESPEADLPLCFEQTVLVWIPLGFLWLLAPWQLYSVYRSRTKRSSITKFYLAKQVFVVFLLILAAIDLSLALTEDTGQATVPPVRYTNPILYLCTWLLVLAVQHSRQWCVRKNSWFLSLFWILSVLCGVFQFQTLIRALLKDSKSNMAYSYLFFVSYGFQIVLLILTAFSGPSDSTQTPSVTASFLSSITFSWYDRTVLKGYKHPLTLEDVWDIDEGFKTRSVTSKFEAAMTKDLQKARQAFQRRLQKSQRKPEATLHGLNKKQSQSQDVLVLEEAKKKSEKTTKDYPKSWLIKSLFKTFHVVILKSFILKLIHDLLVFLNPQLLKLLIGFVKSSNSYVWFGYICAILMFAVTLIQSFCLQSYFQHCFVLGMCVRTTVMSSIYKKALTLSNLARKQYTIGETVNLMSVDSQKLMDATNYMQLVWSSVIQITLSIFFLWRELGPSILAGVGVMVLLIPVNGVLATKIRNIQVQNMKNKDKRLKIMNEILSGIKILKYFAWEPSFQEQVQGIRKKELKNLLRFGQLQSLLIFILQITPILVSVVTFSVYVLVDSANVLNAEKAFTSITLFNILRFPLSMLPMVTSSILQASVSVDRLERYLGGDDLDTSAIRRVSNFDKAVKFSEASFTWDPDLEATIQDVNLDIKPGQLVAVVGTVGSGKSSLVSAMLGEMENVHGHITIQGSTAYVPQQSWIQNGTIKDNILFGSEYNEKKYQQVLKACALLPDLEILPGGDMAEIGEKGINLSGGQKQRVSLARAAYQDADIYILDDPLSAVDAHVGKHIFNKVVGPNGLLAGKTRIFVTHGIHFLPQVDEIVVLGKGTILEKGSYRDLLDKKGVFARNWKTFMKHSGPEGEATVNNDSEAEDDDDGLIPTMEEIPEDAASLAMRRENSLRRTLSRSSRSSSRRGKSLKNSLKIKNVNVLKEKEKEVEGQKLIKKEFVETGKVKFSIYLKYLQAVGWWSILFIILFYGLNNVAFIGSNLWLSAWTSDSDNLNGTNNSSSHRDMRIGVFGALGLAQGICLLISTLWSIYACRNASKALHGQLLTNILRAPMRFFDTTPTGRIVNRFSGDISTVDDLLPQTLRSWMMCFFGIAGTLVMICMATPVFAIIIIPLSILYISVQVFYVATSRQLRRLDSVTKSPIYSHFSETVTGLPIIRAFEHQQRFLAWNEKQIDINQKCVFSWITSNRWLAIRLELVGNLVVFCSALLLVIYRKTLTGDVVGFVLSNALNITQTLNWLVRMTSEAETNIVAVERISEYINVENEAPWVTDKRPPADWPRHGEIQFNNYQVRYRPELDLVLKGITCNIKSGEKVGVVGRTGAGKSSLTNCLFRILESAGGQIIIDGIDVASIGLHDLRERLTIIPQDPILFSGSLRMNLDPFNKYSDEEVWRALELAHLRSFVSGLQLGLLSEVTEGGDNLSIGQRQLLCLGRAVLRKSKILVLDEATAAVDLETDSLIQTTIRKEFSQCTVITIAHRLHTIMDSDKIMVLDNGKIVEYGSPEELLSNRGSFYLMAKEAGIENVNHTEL

Activity [2] | SMILES | IC50 [1] [µM]
– | N[C@@H](CCC(=O)N[C@H](CSc1ccc([N+](=O)[O-])cc1[N+](=O)[O-])C(=O)NCC(=O)O)C(=O)O | 12
substrate [+] | CC(C)(Oc1ccc(C2CCCc3ccccc32)cc1)C(=O)O[C@@H]1O[C@H](O)[C@@H](O)[C@H](O)[C@H]1O (stereo partly drawn) [NAFENOPIN GLUCURONIDE] | –
– | CCCCC/C=C\C\C=C/C=C/C=C/[C@@H](SC[C@@H](NC(=O)CC[C@H](N)C(=O)O)C(=O)NCC(=O)O)[C@@H](O)CCCC(=O)O [LEUKOTRIEN C4] | 0.2
